pKi: −log10 of the molar value. Like-named read-outs stand apart in the source and are kept apart here.
Assays:
[1] = molecular target: rBIIA isoform of Na+ channels (Rattus norvegicus, UniProt P04775); assay: Electrophysiological Assay 1: patch-clamp of voltage-sensitive Na+ currents in HEK-293 cells; format: cell-based; details: HEK-293 cells stably expressing rBIIA; for pKi: apparent antagonist dissociation constant for inactivated sodium channels
Description: Cell preparation: HEK-293 (NaIIA-B2) cell line stably expressing the rBIIA isoform of Na^+ channels was established in-house. The cells were cultured using standard techniques, as described previously (Verdoom, T. A, et al., Neuron 4:919-928 (1990)). For electrophysiology, cells were plated onto poly-D-lysine pre-coated Cellware 35 mm Petri dishes (BIOCOAT, Becton Dickinson) at a density of ˜10^4 cells/dish on the day of re-seeding from confluent cultures. Our experience has been that cells are suitable for recordings for 2-3 days after plating.
Patch-clamp recordings of voltage-sensitive Na^+ currents: Whole-cell voltage-clamp recordings were made using conventional patch-clamp techniques (Hamill et al., Pfluegers Arch. 391:85-100 (1981)) with an Axopatch 200A amplifier (Axon Instruments, Foster City, Calif.). The recording chamber was continuously superfused with the external solution (150 mM NaCl, 5.4 mM KCl, 1.8 mM CaCl2, 1 mM MgCl2, 10 mM HEPES, 10 mM glucose, pH 7.4 adjusted with NaOH, osmolality ˜320 mmol/kg) at a speed of about 1 mL/min. Recording pipettes were pulled from the thick-walled capillaries (WPI, Sarasota, Fla.) and fire-polished. The pipette resistances ranged from 1 to 3 MΩ when the pipettes were filled with internal solution containing (in mM): 130 CsF, 20 NaCl, 2 MgCl2, 10 EGTA, 10 HEPES, pH adjusted to 7.4 with CsOH, osmolality ˜310 mmol/kg. Drugs and intervening wash-outs were applied through a linear array of flow pipes (Drummond Microcaps, 2 μL, 64-mm length). Compounds are dissolved in dimethylsulfoxide (DMSO) to make a 30 mM stock solution, which was subsequently diluted into the external solution to give final concentrations of 0.1-100 μM. At the highest (1%) concentration, DMSO inhibited the size of Na^+ current only slightly. Currents were recorded at room temperature (22-25° C.), filtered at 3 kHz with an active 8-pole Bessel filter (Frequency Devices, Haverhill, Mass.), digitized at 10-50 μs intervals, and stored using Digidata 1200 analog/digital interface with Pclamp6/Clampex software (Axon Instruments). Series resistance was cancelled typically by ˜75% when necessary.
The following voltage pulse protocols A, B, C, and D were used to assess the potency and kinetics of inhibition of the Na^+ channels by the compounds (FIGS. 1A-1D).
Current-voltage relationship (IV-curve), protocol A (FIG. 1A), was used to report the voltage at which the maximal inward Na^+ current is achieved. This voltage was used throughout the experiment as testing voltage, Vt. The steady-state inactivation (or, availability) curve, protocol C (FIG. 1C), was used to get the voltage at which almost complete (≧95%) inactivation of Na^+ channels occurs; it served as voltage for conditioning prepulse, Vc, throughout the experiment. Protocol B (FIG. 1B) reports how fast the channels recover from inactivation at hyperpolarized voltages. This permitted us to set up the duration of the hyperpolarization gap which is used in measurement of the kinetics of binding of compounds to inactivated Na^+ channels (protocol D (FIG. 1D)). Channel repriming under control conditions was fast (≧90% recovery during first 5-10 ms). If a drug substantially retards the repriming process then it becomes possible (protocol D) to accurately measure the kinetics of binding of the inhibitor to inactivated channels as well as the steady-state affinity (k+ and Ki). To estimate k+ values the reduction in peak currents in successive trials with varying pre-pulse duration was plotted as a function of pre-pulse duration and the time constant (τ) measured by mono-exponential fit. A plot of 1/τ as a function of antagonist concentration then allowed calculating of the macroscopic binding rates of the antagonists. […]

[2] = test system: maximal electroshock-induced seizures (MES); assay: Maximum electroshock seizure test (MES), anticonvulsant evaluation; format: in vivo; details: Mus musculus, mice
Text: The compounds of the present invention may be tested for in vivo anticonvulsant activity after i.v., p.o. or i.p. injection using a number of anticonvulsant tests in mice, including the maximum electroshock seizure test (MES). Maximum electroshock seizures were induced in male NSA mice weighing between 15-20 g and male Sprague-Dawley rats weighing between 200-225 g by application of current (50 mA, 60 pulses/sec, 0.8 msec pulse width, 1 sec duration, D.C., mice; 99 mA, 125 pulses/sec, 0.8 msec pulse width, 2 sec duration, D.C., rats) using a Ugo Basile ECT device (Model 7801). Mice were restrained by gripping the loose skin on their dorsal surface and saline-coated corneal electrodes were held lightly against the two corneae. Rats were allowed free movement on the bench top and ear-clip electrodes were used. […] A tonic seizure was defined as a hindlimb extension in excess of 90 degrees from the plane of the body. Results were treated in a quantal manner.
The ability of 4-[4-(4-fluorophenoxy)phenyl]-pyrimidine-2-carboxamide to block maximal electroshock-induced seizures (MES) was determined according to the method above.
4-[4-(4-Fluorophenoxy)phenyl]-pyrimidine-2-carboxamide was administered p.o. to mice 30 minutes before the test procedure.
The following compounds on Table 1 were tested accordingly after a p.o. administration and also after an i.v. injection. The compounds were injected i.v. 15 minutes before the test procedure.

[3] = test system: Chung model of neuropathic pain (tactile allodynia); assay: Chung model of neuropathic pain, tactile antiallodynia effect; format: in vivo; details: rats, p.o.
Text: The compounds may be tested for their potential for the treatment of chronic pain (antiallodynic and antihyperalgesic activities) in the Chung model of peripheral neuropathy. Male Sprague-Dawley rats weighing between 200-225 g were anesthetized with halothane (1-3% in a mixture of 70% air and 30% oxygen) and their body temperature controlled during anesthesia through use of a homeothermic blanket. A 2-cm dorsal midline incision was then made at the L5 and L6 level and the para-vertibral muscle groups retracted bilaterally. L5 and L6 spinal nerves were then be exposed, isolated, and tightly ligated with 6-0 silk suture. A sham operation was performed exposing the contralateral L5 and L6 spinal nerves as a negative control.
Tactile Allodynia: Rats were transferred to an elevated testing cage with a wire mesh floor and allowed to acclimate for five to ten minutes. A series of Semmes-Weinstein monofilaments were applied to the plantar surface of the hindpaw to determine the animal's withdrawal threshold. […] This procedure was repeated with subsequent lesser filaments until there was no response and the lightest filament that elicited a response was recorded. […] For each animal, three measurements were made at every time point to produce an average withdrawal threshold determination. Tests were performed prior to and at 1, 2, 4 and 24 hours post drug administration. Tactile allodynia and mechanical hyperalgesia tests were conducted concurrently.
The tactile antiallodynia effect of the compounds listed in Table 4 was tested in the Chung model of neuropathic pain in rats as described above and described by Kim and Chung (Pain 50:355-363 (1992)). […]

[4] = iv, i.v. injection 15 minutes before the test, read-out: MES i.v. ED50
[5] = po, p.o., 30 minutes before the test, ED50 = dose protecting 50% of animals, read-out: MES p.o. ED50

pKi [1] | inhibition of voltage-gated sodium currents [1] | melting point [°C] | Structure (SMILES) | ED50 [2, 4] [mg/kg] | ED50 [2, 5] [mg/kg] | MED (minimal effective dose) [3] [Mg/kg]
5.66 |  |  | NC(=O)c1nc(-c2ccc(Oc3ccccc3)cc2)c(N)nc1N [3,5-Diamino-6-(4-phenoxyphenyl)pyrazine-2-carboxamide] |  |  | 
6.68 |  |  | NC(=O)c1nccc(-c2ccc(Oc3ccc(C(F)(F)F)cc3)cc2)n1 [4-[4-(4-Trifluoromethylphenoxy)phenyl]-pyrimidine-2-carboxamide] | 0.5 | 2.5 | 
6.74 |  |  | CC(C)(C)NC(=O)c1nccc(-c2ccc(Oc3ccc(F)cc3)cc2)n1 [4-[4-(4-Fluorophenoxy)phenyl]-pyrimidine-2-carboxylic acid tert-butylamide] |  |  | 
6.66 |  |  | NC(=O)c1ccnc(-c2ccc(Oc3ccc(Cl)cc3F)cc2)n1 [2-[4-(4-Chloro-2-fluorophenoxy)phenyl]pyrimidine-4-carboxamide] | 2.3 | 5.7 | 1.25
7.15 |  |  | NC(=O)c1cccc(-c2ccc(Oc3ccc(F)cc3)cc2)n1 [6-[4-(4-Fluorophenoxy)phenyl]pyridine-2-carboxamide] | 1.2 | 3.3 | 2.50
6.31 | dose-dependent inhibition |  | NC(=O)c1nccc(-c2ccc(Oc3ccc(F)cc3)cc2)n1 [4-[4-(4-Fluorophenoxy)phenyl]-pyrimidine-2-carboxamide] | 0.7 | 1.6 | 
4.87 |  |  | CN(C)C(=O)c1nccc(-c2ccc(Oc3ccc(F)cc3)cc2)n1 [4-[4-(4-Fluorophenoxy)phenyl]-pyrimidine-2-carboxylic acid dimethylamide] |  |  | 
4.70 |  |  | Fc1ccc(Oc2ccc(-c3nccc(-c4nc[nH]n4)n3)cc2)cc1 [2-[4-(4-fluorophenoxy)phenyl]-4-[3-(1,2,4-triazolyl)]pyrimidine] |  |  | 
 |  | 178 to 180 | NC(=O)c1cccc(-c2ccc(Oc3ccccc3)cc2)n1 [6-(4-Phenoxyphenyl)pyridine-2-carboxamide] | 3.2 | 10.5 | 
7.00 |  |  | NC(=O)c1ccnc(-c2ccc(Oc3ccc(F)cc3)cc2)n1 [2-[4-(4-Fluorophenoxy)phenyl]pyrimidine-4-carboxamide] | 2.5 | 7.5 | 2.50
4.29 |  |  | O=C(O)c1nccc(-c2ccc(Oc3ccc(F)cc3)cc2)n1 [4-[4-(4-Fluorophenoxy)phenyl]-pyrimidine-2-carboxylic acid] |  |  | 
6.44 |  |  | NC(=O)c1nccc(-c2ccc(Oc3ccc(F)cc3F)cc2)n1 [4-[4-(2,4-Difluorophenoxy)phenyl]-pyrimidine-2-carboxamide] | 0.9 | 1.4 | 
